We go through one compound from paper PMC10893631, “Receptor-based pharmacophore modeling, molecular docking, synthesis and biological evaluation of novel VEGFR-2, FGFR-1, and BRAF multi-kinase inhibitors” (BMC Chemistry, 2024).

Series [1] relates to MCF-7 cells. Briefly: Annexin V-FITC apoptosis assay. The format is cell-based. To be noted: MCF-7, at GI50 concentration. As to the method: As previously reported, the Annexin V-FITC apoptosis detection kit (Abcam Inc., Cambridge, UK) in conjunction with two fluorescent channels flow cytometry was used to identify the populations of apoptosis and necrosis cells. (For further details see Additional file 1: section II: practical results). […]
(§1) MCF-7: Breast Adenocarcinoma was obtained from Nawah Scientific Inc., (Mokatam, Cairo, Egypt). Cells were maintained in DMEM media supplemented with […] of streptomycin, 100 units/mL of penicillin and 10% of heat-inactivated fetal bovine serum in humidified, 5% (v/v) CO2 atmosphere at 37 °C. […]
Biosciences Inc., San Diego, CA, USA). […]
Apoptosis and necrosis cell populations are determined using Annexin V-FITC apoptosis detection kit (Abcam Inc., Cambridge Science Park, Cambridge, UK) coupled with 2 fluorescent channels flowcytometry. After treatment with test compounds for 48h, cells (105 […]
trypsinization and washed twice with ice-cold PBS (pH 7.4). Then, cells are incubated in dark with 0.5 ml of Annexin V-FITC/PI solution for 30 min in dark at room temperature according to manufacturer protocol. After staining, cells are injected via ACEA

A further series concerns the target T1, BRAF (WT) (Homo sapiens, UniProt P15056).
T1 construct: purchased BPS Biosciences 78316
Briefly: BRAF kinase assay kit (BPS), Kinase-Glo Max luminescence. The format is biochemical. The protocol: (§2) 2. Biochemical kinase assay procedure
The inhibitory activity against different kinases was determined using kinase kits […]
from BPS Biosciences and kinase-Glo Max luminescence kinase assay kit (Promega).
(§3) The assay was carried out according to the protocol provided by the manufacturer. A stock solution of the synthesized derivatives in 100% DMSO was prepared. Subsequently, the compounds were diluted to 10% DMSO.
(§4) A master mixture was prepared according to the number of wells. For VEGFR-2 and FGFR-1 biochemical assays each well include 6 μl of 5x Kinase Buffer 1 + 1 μl of 500 μM ATP + 1 μl of PTK Substrate (Poly-Glu,Tyr 4:1) (10 mg/ml) + 17 μl of distilled water. […]
(§5) The plate was incubated at 30 °C for 45 min. Subsequently, 50 μl of Kinase-Glo Max luminescence reagent was added to each well and the plate was covered with aluminum foil and incubated at room temperature 15 min. Finally, the luminescence was recorded using multimode microplate reader. […]
(§6) The luminescence data were analyzed as follows. The difference between luminescence intensities in the absence of kinase (Lut) and in the presence of kinase (Luc) was defined as 100 % activity (Lut – Luc). Using luminescence signal (Lu) in the presence of the compound, % activity was calculated as: % activity = {(Lut - Lu)/(Lut - Luc)}×100%. […]

Series [2] concerns MCF-7 cells. Briefly: Cell cycle analysis by PI flow cytometry. The format is cell-based. To be noted: MCF-7, at GI50 concentration. The protocol: After the cells were handled as previously described, the distribution of the cells at each stage of the cell cycle was analysed. (For further details see Additional file 1: section II: practical results).
6. Analysis of Cell Cycle Distribution
as §1
cells) are collected by trypsinization and washed twice with ice-cold PBS (pH 7.4). Cells are re-suspended in two milliliters of 60% ice-cold ethanol and incubated at 4 °C for 1 h for fixation. Fixed cells are washed twice again with PBS (pH 7.4) and re-suspended in 1 mL of PBS containing 50 µg/mL RNAase A and 10 µg/mL propidium iodide (PI). After 20 min of incubation in dark at 37 C, cells are analyzed for DNA contents using flow cytometry analysis using FL2 (λex/em 535/617 nm) signal detector (ACEA Novocyte™ flowcytometer, ACEA Biosciences Inc., San Diego, CA, USA). For each sample, 12,000 events are acquired.
Cell cycle distribution is calculated using ACEA NovoExpress™ software (ACEA Biosciences Inc., San Diego, CA, USA).
*G0/G1-phase: This phase denotes the non-proliferating cells. Compounds with antiproliferative effect (regardless of their cytotoxicity) are expected to increase this cell […]
*S-phase: This phase denotes proliferating cells and particularly the cells who are undergoing DNA synthesis step of replication. Some compounds might induce S-phase […]
*G2/M-phase: This phase indicates the final phase of cell replication (mitosis). […]
Background: In flow cytometry, cells or beads pass a laser one at a time.

For another series, the target named is T2, FGFR-1 (Homo sapiens, UniProt P11362).
T2 construct: purchased BPS Biosciences 40210
T2 sequence (P11362 22-822): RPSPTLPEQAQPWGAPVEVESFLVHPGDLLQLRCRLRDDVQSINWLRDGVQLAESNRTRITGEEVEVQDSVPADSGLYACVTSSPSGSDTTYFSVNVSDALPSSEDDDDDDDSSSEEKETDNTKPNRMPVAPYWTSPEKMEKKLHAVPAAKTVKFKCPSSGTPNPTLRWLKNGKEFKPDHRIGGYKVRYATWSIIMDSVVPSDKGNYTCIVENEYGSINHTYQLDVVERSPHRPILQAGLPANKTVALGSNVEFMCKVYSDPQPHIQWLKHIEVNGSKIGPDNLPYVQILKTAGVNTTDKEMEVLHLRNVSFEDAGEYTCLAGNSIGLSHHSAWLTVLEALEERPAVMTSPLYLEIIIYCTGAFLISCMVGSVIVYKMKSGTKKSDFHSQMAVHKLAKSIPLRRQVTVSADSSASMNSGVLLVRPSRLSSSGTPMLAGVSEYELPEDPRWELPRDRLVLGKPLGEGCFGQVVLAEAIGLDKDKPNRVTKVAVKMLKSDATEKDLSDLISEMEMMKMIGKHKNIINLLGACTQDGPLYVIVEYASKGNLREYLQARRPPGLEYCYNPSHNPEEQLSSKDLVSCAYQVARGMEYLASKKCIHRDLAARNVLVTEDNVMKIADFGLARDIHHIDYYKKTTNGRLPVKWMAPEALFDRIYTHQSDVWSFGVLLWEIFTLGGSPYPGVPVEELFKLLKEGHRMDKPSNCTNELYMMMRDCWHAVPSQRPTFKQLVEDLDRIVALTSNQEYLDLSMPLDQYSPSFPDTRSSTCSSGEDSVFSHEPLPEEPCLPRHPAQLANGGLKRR
The experiment in a line: FGFR-1 kinase assay kit (BPS), Kinase-Glo Max luminescence. The format is biochemical. As to the method:
as §2
The inhibitory activity against different kinases was determined using kinase kits (VEGFR-2 cat ID: 40325), (FGFR-1 cat ID: 40210), (BRAF (WT) cat. ID: 78316); purchased from BPS Biosciences and kinase-Glo Max luminescence kinase assay kit (Promega).
as §3, §4, §5, §6
On the technique in general: In Kinase-Glo more light means more ATP remaining.

T1 sequence (P15056 whole entry): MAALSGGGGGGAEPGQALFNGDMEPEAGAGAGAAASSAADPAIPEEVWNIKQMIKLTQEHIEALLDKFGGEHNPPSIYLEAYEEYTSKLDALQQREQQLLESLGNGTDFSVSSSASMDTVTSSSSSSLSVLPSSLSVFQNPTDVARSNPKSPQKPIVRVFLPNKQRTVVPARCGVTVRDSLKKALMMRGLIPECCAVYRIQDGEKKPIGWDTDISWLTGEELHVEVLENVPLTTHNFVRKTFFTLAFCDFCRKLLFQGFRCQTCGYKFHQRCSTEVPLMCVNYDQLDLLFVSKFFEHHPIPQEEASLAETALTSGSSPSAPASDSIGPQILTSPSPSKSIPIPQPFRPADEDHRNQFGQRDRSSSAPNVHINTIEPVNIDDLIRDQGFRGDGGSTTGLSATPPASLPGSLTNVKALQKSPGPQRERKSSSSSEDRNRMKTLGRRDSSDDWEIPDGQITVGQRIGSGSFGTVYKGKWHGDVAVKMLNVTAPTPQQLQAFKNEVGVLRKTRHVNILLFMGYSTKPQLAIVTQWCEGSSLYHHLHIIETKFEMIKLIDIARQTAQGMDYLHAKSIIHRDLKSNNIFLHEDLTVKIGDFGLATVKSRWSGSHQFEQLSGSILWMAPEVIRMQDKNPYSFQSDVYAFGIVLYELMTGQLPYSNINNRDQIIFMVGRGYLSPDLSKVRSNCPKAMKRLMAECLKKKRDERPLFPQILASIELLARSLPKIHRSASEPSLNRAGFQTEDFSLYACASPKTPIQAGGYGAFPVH

In general, IC50 refers to the concentration at which inhibition is half-maximal. Read a low IC50 as inhibition by little substance. Turning to `COc1cc(C=NNC(=O)c2ccc3[nH]c(-c4ccc(Cl)cc4)nc3c2)cc(OC)c1OC` [8u, 2-(4-Chlorophenyl)-N'-(3,4,5-trimethoxybenzylidene)-1H-benzo[d]imidazole-5-carbohydrazide], the apoptosis induction entry in the series with MCF-7 cells [1] is “induces cell apoptosis in MCF-7 cell line”. Further, in the series on MCF-7 cells [1] (48h), the “% necrotic cells (Q2-1)” value stood at 1.09%. In the series with MCF-7 cells [1] (48h), the “% viable cells (Q2-3)” value turned out to be 92.92%. Also, the “% of cells in early apoptosis (Q2-4)” value in the series with MCF-7 cells [1] (48h, control 0.25%) amounted to 1.46%. For the same compound, in the series with MCF-7 cells [1] (48h, control 2.36%), the “% of cells in late apoptosis (Q2-2)” value is listed as 4.54%. Further, the results for the IC50 against BRAF (WT) and against FGFR-1 were 250 ± 30 nM and 3740 ± 340 nM, respectively. In addition, the cell cycle arrest entry in the series with MCF-7 cells [2] was “arrests the MCF-7 cell line at the G2/M phase”. Also, the “%Sub-G1” value with MCF-7 cells [2] (48h, control 2.64) amounted to 4.40%. Further, in the series on MCF-7 cells [2] (48h, control 20.60), the “%G2/M” value stood at 25.57%. In addition, the “%S” value in the series with MCF-7 cells [2] (48h, control 23.10) is recorded as 29.11%. The “%G0/G1” value in the series on MCF-7 cells [2] (48h, control 56.30) is 45.32%.
